Measurements taken from US20110207694A1, “MAMMALIAN HYPOTHALAMIC NUTRIENT MODULATION OF GLUCOSE METABOLISM” (priority 2005, published 2011).

What was measured:
Assay type in all cases: in vivo, rat
high fat-fed rats = test: ICV glucose or lactate in high fat-fed rats: plasma triglycerides and VLDL secretion
Experimental: High fat feeding. Male Sprague-Dawley rats were fed a highly palatable high fat diet for three days. These rats developed hyperinsulinemia and hepatic insulin resistance (Morgan et al., 2004). […] In a separate set of studies, lipoprotein secretion studies were performed at the beginning of the ICV infusions.

hepatic VLDL secretion = test: Lipoprotein (VLDL) secretion studies with tyloxapol; NMR particle size; conditions: ICV glucose
Experimental: Lipoproteins secretion and particles concentration and size measurements. Tyloxapol (600 mg/kg; ˜1 min) was intravenously injected to inhibit endogenous lipoprotein lipase. This high dose of tyloxapol ensured complete inhibition of triglyceride clearance during VLDL secretion studies. Plasma samples were taken every 30 min for triglycerides analysis and for lipoprotein profiling. Plasma VLDL particles concentration and size were determined by nuclear magnetic resonance spectroscopy (lipoprofile-II test) at Liposcience as previously described (Otvos et al., 1991; 1992). This NMR lipoprofile-II test is based on the assumption that each plasma lipoprotein particle of a particular size gives its own characteristic lipid NMR signal. The intensity of the signal is also in proportion to the concentration of the particle. The diameter range for large, medium and small VLDL is >60 nm, 35-60 nm, and 27-35 nm, respectively.
Selective hepatic branch vagotomy. The surgeries were performed as described (Lam et al., 2005c).
Treatment with SCD1 ASO. Five and two days before the lipoprotein secretion studies, rats received a single intra-peritoneal injection of either SCD1 or scrambled (SCR) ASO (100 mg/kg of body weight). […] In a separate set of studies, rats received intra-portal injection of either SCD1 or SCR ASO (40 mg/kg of body weight) (Gutierrez-Juarez et al., 2006) three days before the lipoprotein secretion studies.
Portal oleate infusion. Chronic portal catheter was implanted and 7 days were allowed for rat recovery. Oleic acid (45 mM; dissolved in 45% HBP) was infused at a rate of 40 μl/h for 2.5 h (1 h before the 90 min lipoprotein secretion studies). This dose enabled the reconstitution of hepatic oleyl-CoA levels back to normal during portal SCD1 ASO (FIG. 11c) or ICV glucose studies (FIG. 11d).

mediobasal hypothalamus = test: Intrahypothalamic (IH) infusion of glucose or DCA with pancreatic basal insulin clamp; conditions: IH administration
Description: FIG. 3 is a diagram of experimental protocols (Panel (a)) and graphs of results of those experiments utilizing intrahypothalamic (IH) infusions of glucose.
FIG. 4 is a schematic and graphs of experimental results showing the effect of dichloroacetate (DCA), an inhibitor of pyruvate dehydrogenase kinase, having the effect of activating pyruvate dehydrogenase (PDH). The schematic of Panel (a) illustrates the PDH activation effect of DCA in the context of glucose metabolism, the TCA cycle, and nervous system cells.
We have localized the effect of glucose on liver glucose production to the mediobasal hypothalamus. This was accomplished using bilateral intraparenchymal (rather than ICY) delivery of both glucose and the KATP blocker GLI.

male Sprague-Dawley rats = test: ICV infusion: plasma triglycerides and metabolites under basal and pancreatic clamp conditions
Description: Animal preparation. We studied 10-week-old male Sprague-Dawley rats. Rats underwent stereotaxic surgery to indwell single catheters in the third cerebral ventricle {intracerebroventricular (ICV)(Obici et al., 2001) or bilateral catheters into the mediobasal hypothalamus (Lam et al., 2005c). One week later, we placed indwelling catheters in the internal jugular vein and carotid artery for sampling and infusion during the in vivo experiments (Obici et al., 2001). Recovery from surgery was monitored by measuring daily food intake and weight gain for 4-5 days after surgery.
Infusion protocols. The in vivo infusion experiments lasted a total of 360 min, and the experiments were carried out in rats that had their food removed ˜5 h before the experiments. Thus, at the time of the experiment, the rats are in post-absorptive state since their stomach should be completely emptied by 5 h fasting. […] This ICV glucose protocol physiologically elevate hypothalamic glucose concentration by ˜70% as previously described (Lam et al., 2005b) and is similar to that induced by a doubling of the circulating glucose levels (Lam et al., 2005b). During the ICV infusions, we monitored the plasma metabolite levels under pre-infused (0 min), basal (180-240 min) and pancreatic clamp (300-360 min) conditions. […] A basal insulin-pancreatic clamp was performed in the final 2 h (240-360 min) of the study as previously described (Lam et al., 2005b). In brief, a continuous infusion of insulin (1 mU/kg.min) and somatostatin (3 μg/kg.min) was administered, and a variable infusion of a 25% glucose solution was started and periodically adjusted to clamp and maintain the plasma glucose concentration at ˜8 mM. […] To examine the time-dependent effects of ICY glucose on plasma triglycerides, ICY (5 μl/h) 2 mM D-glucose or mannitol was administrated for 210 min and plasma triglyceride levels were monitored at 0, 20, 60, 120, 180, 210 min. […] Plasma triglycerides were monitored under basal, pancreatic clamp and tyloxapol-treated conditions. At the end of the infusion experiments, rats were anesthetized and tissue samples were freeze-clamped in situ with aluminum tongs pre-cooled in liquid nitrogen. All tissue samples were stored at −80° C. for subsequent analysis.
Biochemical analyses. Plasma glucose concentrations were measured by the glucose oxidase method (Glucose Analyzer II, Beckman Instruments, Inc., Fullerton, Calif.). […] FFA concentrations were determined by an enzyme assay in accordance with the manufacturer's specifications (Waco Pure Chemical Industries. Osaka. Japan). Plasma insulin concentrations (with rat and porcine insulin standards) were measured by radioimmunoassay (RIA). Plasma adiponectin concentrations were measured by RIA (Linco Inc., Austin, Tex., USA). Liver triglycerides were measured as described (Muse et al., 2004).
Calculations. Statistical analysis was done by unpaired Student's t test or analysis of variance as appropriate. Data are presented as means±SEM. All values were collapsed into a single value for each animal prior to the calculation of mean. The time period 180-240 min was averaged for the basal and the time period 300-360 min was averaged for the clamp conditions.

Compound: O=C[C@H](O)[C@@H](O)[C@H](O)[C@H](O)CO [glucose, D-glucose]
- rate of appearance of VLDL-triglycerides in plasma (high fat-fed rats; HF rats, tyloxapol): failed to decrease the rate of appearance of VLDL-triglycerides in plasma
- circulating levels of triglycerides (high fat-fed rats; high fat-fed rats): failed to decrease the circulating levels of triglycerides
- hepatic content of triglycerides (hepatic VLDL secretion): increased
- rate of secretion of small (27-35 nm) and medium (35-60 nm) VLDL particles (hepatic VLDL secretion): tended to be higher
- secretion of large triglyceride-rich VLDL particles (diameter >60 nm) (hepatic VLDL secretion): dramatically and selectively blunted the secretion of large triglyceride-rich VLDL particles
- average size of the secreted VLDL particles (hepatic VLDL secretion; NMR spectroscopy): significant decrease in the average size of the secreted VLDL particles
- rate of secretion of VLDL-triglycerides (hepatic VLDL secretion; tyloxapol 600 mg/kg): suppressed the rate of secretion of VLDL-triglycerides within 90 minutes
- inhibitory effect on VLDL secretion in rats with resection of the hepatic branch of the vagus (hepatic VLDL secretion; preserved in sham-operated rats): abolished
- circulating glucose levels (mediobasal hypothalamus): lowered circulating glucose levels
- glucose production (mediobasal hypothalamus; clamp): suppressed liver glucose production
- glucose utilization (mediobasal hypothalamus; clamp): unchanged
- exogenous glucose infusion rate to maintain euglycemia (mediobasal hypothalamus; pancreatic basal insulin clamps): increased exogenous glucose infusion rate
- decrease in plasma triglyceride levels (male Sprague-Dawley rats; ICV glucose, within 2 h, fraction): ⅓
- maximal hypolipidemic effect (decrease in plasma triglycerides) (male Sprague-Dawley rats; ICV glucose, within 3 h): ~75%
- plasma free fatty acids levels (male Sprague-Dawley rats; ICV infusion): did not modify plasma fatty acids levels
- plasma triglyceride levels (male Sprague-Dawley rats; ICV infusion (glucose 2 mM, L-lactate 5 mM)): markedly decreased the circulating levels of triglycerides
